Measured values from patent US6846953B1, “Aromatic amides” (Warner Lambert Company, priority 1999, dated 2005).

Experiments:
[1] = tested on: Carrageenin induced hyperalgesia in the rat; assay: Carrageenin induced hyperalgesia, rat paw pressure test; format: in vivo; settings: po, 30 mg/kg p.o., 1 h post dose, MPE = maximum possible effect, baseline value prior to carrageenin
Method: (§1) In another test, compounds were evaluated for their ability to reduce the hyperalgesia effects of carrageenin in the following assay: nociceptive pressure thresholds were measured in the rat paw pressure test using an analgesimeter (Randall L. O. and Selitto J. J., A method for measurement of analgesic activity on inflamed tissue. Arch. Int. Pharmacodyn 4: 409-419, 1957). Male Sprague-Dawley rats (70-90 g) were trained on this apparatus before the test day. Pressure was gradually applied to the hind paw of each rat Nociceptive thresholds were determined as the pressure (g) required to elicit paw withdrawal. A cutoff point of 250 g was used to prevent any tissue damage to the paw. On the test day, 2 to 3 baseline measurements were taken before animals were administered 100 μl of 2% aqueous carrageenin by intraplantar injection into the right hind paw. […]

[2] = tested on: Carrageenin induced thermal hyperalgesia in the rat; assay: as above; format: in vivo; settings: po, 30 mg/kg p.o., 2 h post dose, MPE = maximum possible effect, baseline value prior to carrageenin
Method: as §1

Structure (SMILES)	inhibition in vivo at 30 mg/kg [1] [%]	inhibition in vivo at 30 mg/kg [2] [%]
CCC(=O)N(CCN1CCOCC1)c1ccc(Cl)c2ccccc12 [Example 4]	44.8	30.7
CCC(=O)N(CCN(CC)CC)c1cccc2c1-c1ccccc1C2=O [Example 2, N-Propionyl, N-(2-Diethylaminoethyl)-4-amino-9-fluorenone]	1.1	6.4
CCC(=O)N(CCN(CC)CC)c1ccc(Br)c2ccccc12 [Example 3, N-Propionyl, N-(2-Diethylaminoethyl)-1-amino-4-bromonaphthalene]	-2.6	7.7
CCC(=O)N(CCN(CC)CC)c1ccc(Cl)c2ccccc12 [Example 1, N-Propionyl, N-(2-Diethylaminoethyl)-1-amino-4-chloronaphthalene]	51.5	22.2
C=CC(=O)N(CCN(CC)CC)c1ccc(Cl)c2ccccc12 [Example 14, N-Acryloyl, N-(2-Diethylaminoethyl)-1-amino-4-chloronaphthalene]	15.1	0.9
CCC(=O)N(c1ccc(Cl)c2ccccc12)C(C)CN(CC)CC (centres unmarked) [Example 5, N-Propionyl, N-(2-(3-diethylamino-propyl))-1-amino-4-chloronaphthalene]	23.3	27.5
CCC(=O)N(CCNCc1ccccc1)c1cccc2ccccc12 [Example 12, N-Propionyl, N-(2-(N-benzyl)-aminoethyl)-1-aminonaphthalene]	29.7	3.13
